Assay results as given in ChEMBL document CHEMBL1154346 (Bioorg Med Chem Lett, 2009).

How the values were obtained:
[1] = system: Canis familiaris; experiment: Cardiotoxicity in conscious dog assessed as prolongation of QT interval; type: toxicity, organism-based, Canis lupus familiaris; details: in vivo
[2] = target: Voltage-gated inwardly rectifying potassium channel KCNH2 (Homo sapiens, UniProt Q12809); experiment: Displacement of [3H]dofetilide from human ERG expressed in HEK293 cells; type: cell-based
[3] = Toxicity in iv dosed mouse assessed as loss of righting reflex; type: organism-based; details: in vivo, read-out: HD50 (the source's name)

Sequence of Voltage-gated inwardly rectifying potassium channel KCNH2 (Q12809 whole entry): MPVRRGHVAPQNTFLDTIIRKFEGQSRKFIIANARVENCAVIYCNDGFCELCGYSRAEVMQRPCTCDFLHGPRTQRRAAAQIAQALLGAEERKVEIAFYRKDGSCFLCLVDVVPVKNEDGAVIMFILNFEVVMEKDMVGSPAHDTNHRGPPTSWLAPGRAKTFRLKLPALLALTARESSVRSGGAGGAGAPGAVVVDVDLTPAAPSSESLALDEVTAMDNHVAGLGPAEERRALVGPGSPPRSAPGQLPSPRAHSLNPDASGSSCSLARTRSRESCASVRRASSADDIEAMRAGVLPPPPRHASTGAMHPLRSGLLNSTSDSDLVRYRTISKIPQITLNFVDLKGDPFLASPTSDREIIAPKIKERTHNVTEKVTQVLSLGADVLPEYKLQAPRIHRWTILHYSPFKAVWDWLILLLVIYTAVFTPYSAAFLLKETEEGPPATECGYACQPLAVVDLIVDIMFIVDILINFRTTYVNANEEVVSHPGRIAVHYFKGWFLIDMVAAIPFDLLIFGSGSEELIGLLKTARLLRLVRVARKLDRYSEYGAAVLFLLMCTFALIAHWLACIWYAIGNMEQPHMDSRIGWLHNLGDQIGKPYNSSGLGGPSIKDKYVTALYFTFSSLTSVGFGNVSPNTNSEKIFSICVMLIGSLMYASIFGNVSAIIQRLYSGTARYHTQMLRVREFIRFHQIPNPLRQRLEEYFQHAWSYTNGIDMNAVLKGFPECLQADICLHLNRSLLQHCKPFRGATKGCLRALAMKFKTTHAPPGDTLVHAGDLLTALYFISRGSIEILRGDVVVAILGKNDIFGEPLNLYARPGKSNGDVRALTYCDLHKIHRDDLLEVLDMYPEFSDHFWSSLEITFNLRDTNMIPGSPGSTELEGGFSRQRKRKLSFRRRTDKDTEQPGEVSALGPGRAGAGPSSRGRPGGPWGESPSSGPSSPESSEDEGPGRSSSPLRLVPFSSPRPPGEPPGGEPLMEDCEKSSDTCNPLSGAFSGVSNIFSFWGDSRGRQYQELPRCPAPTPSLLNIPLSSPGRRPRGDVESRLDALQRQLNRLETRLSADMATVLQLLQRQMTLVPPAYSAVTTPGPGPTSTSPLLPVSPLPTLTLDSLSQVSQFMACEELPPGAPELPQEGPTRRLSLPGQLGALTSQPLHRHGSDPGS

SMILES: CNC(=O)Cn1c(=O)n(C2CCN(CCC(Oc3cc(OC)ccc3C)C(C)C)CC2)c2ccccc21 (racemic)
- Activity [1]: 10%
- Ki [2]: 0.056 µM
- TD50 [3]: 4.7 µmol/kg
